Test results: patent US20130023504A1, “Modulation of Prostaglandin/Cyclooxygenase Metabolic Pathways” (HUNTER-FLEMING LIMITED, priority 2006, published 2013)
Marks after values point to notes of the source that are not given here.

Legend:
Format in all cases: cell-based
[1] = system: human PBMC; test: PG levels (PGE2, PGD2, 15d-PGJ2) in culture medium of human PBMC cultured with and without TNF-α, EIA (Example 3)
Protocol: (§1) Whole blood was collected from donors in EDTA-supplemented pouches at the Etablissement Français du Sang (Brest, France). The PBMC were isolated then from whole blood under sterile conditions within 36 hours after collection. Gradient density centrifugation was carried out on Ficoll (Eurobio). After washing in RPMI 1640 medium (Eurobio), cells were suspended in RPMI 1640 medium supplemented with 10% heat-inactivated fetal calf serum (Eurobio), 2 mM glutamine (D. Dutscher), 100 U of penicillin/ml (D. Dutscher), and 100 μg of streptomycin/ml (D. Dutscher). Monocytes were selected by plastic adherence for 1 h and approximately 10^7 cells were plated in 6-well tissue culture plates (3 mL medium per well). All incubations were performed in a humidified incubator at 37° C. and 5% CO2. Cells were recovered and dispersed in 2 ml fresh incubation medium supplemented with either 7β-hydroxyEPIA, 7β-hydroxy-DHEA, or 7α-hydroxy-DHEA (in 20 μL ethanol) in the presence or absence of 0.01 μg/mL TNF-α (Sigma-Aldrich). Control incubations contained 20 μl ethanol but no steroid. Supernatants were collected after 4 h and 24 hours incubations for measurement of their PG contents and cells were used for subsequent RNA isolation. A single step extraction method using the Trizol Reagent (Invitrogen, Cergy-Pontoise, France) provided total RNA.
Commercially available EIA kits were used for the determination of PGE2 levels (Oxford Biomedical Research, UK) and 15d-PGJ2 levels (Assay designs, Euromedex, France) in culture media. Measurement of PGD2 levels was obtained using the prostaglandin D2-MOX EIA kit (Cayman Chemical, Euromedex). In this case, and prior to assay, the fresh samples were immediately treated with the MOX-HCl reagent, which converted PGD2 into PGD2-MOX, thus preventing any further chemical degradation.
(§2) All assays were carried out in triplicate and results were plotted as mean±S.E.M. One-way analysis of variance was performed followed by Duncan's multiple range tests in order to compare the differences between groups. Differences were considered statistically significant when p<0.05.

[2] = system: COX-2 mRNA; test: COX-2 mRNA in human PBMC with and without TNF-α, quantitative RT-PCR
Protocol: as §1
(§3) cDNAs were synthesized from TURBO DNase I—treated RNA (Ambion, Huntingdon, UK) using the Superscript first strand synthesis system kit (Invitrogen). RT-PCR amplification mixtures (50 μL) contained 2.5× RealMaster Mix/20×SYBR solution (11.25 μL) (Eppendorf, Le Pecq, France) and 200 nM forward and reverse primers. Reactions were run on a RealPlex ep gradient S mastercycler (Eppendorf). The cycling conditions were 10 minutes at 95° C. and 45 cycles at 95° C., 55° C. and 68° C. for 15 seconds, 30 seconds and 30 seconds, respectively. Each assay included a standard curve of four serial dilution points of control cDNA. The HPRT1 housekeeping gene was used for quantification. All oligonucleotide primers (Table 2) were synthesized by Genecust/Distribio (Evry, France). The specificity of the amplified product was monitored by examining the melting curve of the product and confirmed by analysis on agarose gel electrophoresis.
as §2

[3] = system: m-PGES1 mRNA; test: m-PGES1 mRNA in human PBMC with and without TNF-α, quantitative RT-PCR
Protocol: as §1, §3, §2

[4] = 100 nM + TNF-α (10 ng/mL), 24 h

## CC12CCC3C(C1CCC2=O)[C@H](O)C=C1C[C@@H](O)CCC13C (stereo partly drawn) [7α-hydroxy-DHEA, 7α-hydroxy-dehydroEPIAndrosterone]
[1]; 1 nM + TNF-α (10 ng/mL), 4 h
  15d-PGJ2: 0.37 ± 0.020 ng/mL
  PGD2: 0.20 ± 0.003 ng/mL
  PGE2: 0.43 ± 0.003 ng/mL
[1]; 1 nM + TNF-α (10 ng/mL), 24 h
  15d-PGJ2: 0.63 ± 0.007^d ng/mL
  PGE2: 1.53 ± 0.048^c ng/mL
[1]; 1 nM, 4 h, without TNF-α
  15d-PGJ2: 0.46 ± 0.004 ng/mL
  PGD2: 0.17 ± 0.004 ng/mL
  PGE2: 0.22 ± 0.006 ng/mL
[1]; 1 nM, 24 h, without TNF-α
  15d-PGJ2: 0.51 ± 0.013^a ng/mL
  PGD2: 0.13 ± 0.001 ng/mL
  PGE2: 0.23 ± 0.003 ng/mL
[1]; 10 nM + TNF-α (10 ng/mL), 4 h
  15d-PGJ2: 0.40 ± 0.004 ng/mL
  PGD2: 0.17 ± 0.006 ng/mL
  PGE2: 0.45 ± 0.012 ng/mL
[1]; 10 nM + TNF-α (10 ng/mL), 24 h
  15d-PGJ2: 0.71 ± 0.012^d ng/mL
  PGE2: 1.75 ± 0.052^c ng/mL
[1]; 10 nM, 4 h, without TNF-α
  15d-PGJ2: 0.42 ± 0.010 ng/mL
  PGD2: 0.18 ± 0.002 ng/mL
  PGE2: 0.22 ± 0.006 ng/mL
[1]; 10 nM, 24 h, without TNF-α
  15d-PGJ2: 0.59 ± 0.003^a ng/mL
  PGD2: 0.17 ± 0.003 ng/mL
  PGE2: 0.30 ± 0.006 ng/mL
[1]; 100 nM + TNF-α (10 ng/mL), 4 h
  15d-PGJ2: 0.41 ± 0.021 ng/mL
  PGD2: 0.18 ± 0.001 ng/mL
  PGE2: 0.39 ± 0.009 ng/mL
[1]; [4]
  15d-PGJ2: 0.51 ± 0.012^d ng/mL
  PGE2: 1.40 ± 0.037^c ng/mL
[1]; 100 nM, 4 h, without TNF-α
  15d-PGJ2: 0.41 ± 0.004 ng/mL
  PGD2: 0.17 ± 0.003 ng/mL
  PGE2: 0.22 ± 0.005 ng/mL
[1]; 100 nM, 24 h, without TNF-α
  15d-PGJ2: 0.58 ± 0.024^a ng/mL
  PGD2: 0.13 ± 0.002 ng/mL
  PGE2: 0.25 ± 0.012 ng/mL
[2]; 1 nM + TNF-α (10 ng/mL), 4 h
  COX-2 (mRNA), mRNA production relative to controls: 4.72 ± 1.229^a
[2]; 1 nM, 4 h, without TNF-α
  COX-2 (mRNA), mRNA production relative to controls: 0.56 ± 0.072^b
[2]; 1 nM, 24 h, without TNF-α
  COX-2 (mRNA), mRNA production relative to controls: 0.82 ± 0.27^b
[2]; 10 nM + TNF-α (10 ng/mL), 4 h
  COX-2 (mRNA), mRNA production relative to controls: 3.70 ± 1.246^a
[2]; 10 nM, 4 h, without TNF-α
  COX-2 (mRNA), mRNA production relative to controls: 0.94 ± 0.048
[2]; 10 nM, 24 h, without TNF-α
  COX-2 (mRNA), mRNA production relative to controls: 1.66 ± 0.408^a
[2]; 100 nM, 4 h, without TNF-α
  COX-2 (mRNA), mRNA production relative to controls: 1.10 ± 0.108
[2]; 100 nM, 24 h, without TNF-α
  COX-2 (mRNA), mRNA production relative to controls: 1.05 ± 0.214
[3]; 1 nM + TNF-α (10 ng/mL), 24 h
  mPGES1 (mRNA), mRNA production relative to controls: 21.5 ± 6.66^a
[3]; 1 nM, 4 h, without TNF-α
  mPGES1 (mRNA), mRNA production relative to controls: 0.76 ± 0.053
[3]; 1 nM, 24 h, without TNF-α
  mPGES1 (mRNA), mRNA production relative to controls: 1.77 ± 0.324^a
[3]; 10 nM + TNF-α (10 ng/mL), 24 h
  mPGES1 (mRNA), mRNA production relative to controls: 24.9 ± 10.30^a
[3]; 10 nM, 4 h, without TNF-α
  mPGES1 (mRNA), mRNA production relative to controls: 0.94 ± 0.067
[3]; 10 nM, 24 h, without TNF-α
  mPGES1 (mRNA), mRNA production relative to controls: 3.61 ± 0.662^a
[3]; [4]
  mPGES1 (mRNA), mRNA production relative to controls: 25.4 ± 6.96^a
[3]; 100 nM, 4 h, without TNF-α
  mPGES1 (mRNA), mRNA production relative to controls: 0.71 ± 0.058
[3]; 100 nM, 24 h, without TNF-α
  mPGES1 (mRNA), mRNA production relative to controls: 2.63 ± 0.475^a
